“And” between values parts separate entries of the source, which are not always exact repeats. Equal entries are not always repeated. Where two headings read alike, the source gives them in different places.
Experiments:
[1] = target: T1, P236L viral reverse transcriptase (Human immunodeficiency virus type 1 group M subtype B, UniProt P04585, P823L); experiment: inhibition of viral reverse transcriptase (P236L), cell free assay; type: biochemical; settings: IC50 (Table I, P236L), 30 minutes at 37° C.
T1 construct: P236L viral reverse transcriptase is obtained by PNAS 90: 4713-4717 (1993); made in house
Method in brief: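 E. coli-expressed wild-type or P236L RT extracts incubated with inhibitor 30 min at 37 °C in Tris pH 8.3 with MgCl₂, NaCl, DTT, NP-40, 10 μM [35S]-dNTP, poly rC/rG template and oligo dG/dT primer. Incorporated label counted on DE81 paper; reported as % inhibition and/or IC50.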

[2] = target: T2, viral reverse transcriptase (Wild Type) (Human immunodeficiency virus type 1 group M subtype B, UniProt P04585); experiment: inhibition of viral reverse transcriptase (Wild Type), cell free assay; type: biochemical; settings: 30 minutes at 37° C.
T2 construct: Viral reverse transcriptase (Wild Type) is found in extracts from bacterial clones; made in house; host or cells: Escherichia coli
Source text: The utility of the pyrimidine-thioalkyl and alkylether anti-AIDS compounds of Formula IA of this invention can be determined by their ability to inhibit viral reverse transcriptase, an enzyme essential for human immunodeficiency virus replication. This enzyme has characteristics which differentiate it from other known cellular polymerases and it is a unique enzyme which is not found in uninfected cells. Viral reverse transcriptase (Wild Type) is found in extracts from bacterial clones prepared according to the procedure described in AIDS Virus Reverse Transcriptase defined by high level expression in Escherichia coli, EMBO J. 6:3133-3137 (1987). P236L viral reverse transcriptase is obtained by PNAS 90: 4713-4717 (1993). Inhibition of this enzyme is determined in a cell free assay which measures the level of radioactive precursors incorporated into DNA. Extracts prepared according to the procedure of Science, 1125-1129 (1981) are incubated in a mixture of inhibitor, 20 mM dithiothreitol, 60 mM sodium chloride, 0.05% NP-40, 10 mM magnesium chloride, 50 mM Tris pH 8.3, 10 μM [^35 S]-labeled deoxynuleoside-5'-triphosphate, 10 μg/ml RNA template (poly rC or poly rG) and 5 μg/ml DNA primer (oligo dG or oligo dT) for 30 minutes at 37° C. Incorporation of radio-labeled percursor is determined by spotting aliquots of the reaction mixture on DE81 paper, washing the papers to remove unincorporated percursor, drying and determining counts. The results (IC50 means the concentration, in μM of drug, required to inhibit the reverse transcriptase activity (P236L and Wild Type) to the extent of 50%) of various assay(s) are combined and reported as % inhibition and/or IC50 (calculated) in Table I (P236L) and Table II (Wild Type).

[3] = read-out: IC50 (Table II, Wild Type)

SMILES	IC50 [1]	IC50 [2, 3]	IC50 ([2]; IC50 (Table II, Wild Type)) [nM]
Cc1coc2cnc([C@@H](C)Sc3nc(N)cc(Cl)n3)cc12 [Example 289, (R)-(+)-4-Amino-6-chloro-2-(1-(3-methylfuro[2,3c]pyridine-5-yl)ethyl)thio-pyrimidine]	14 nM	29 nM	–
Cc1coc2cnc([C@H](C)Sc3nc(N)cc(Cl)n3)cc12 [Example 290, (S)-(-)-4-Amino-6-chloro-2-(1-(3-methylfuro[2,3c]pyridine-5-yl)ethyl)thio-pyrimidine]	14 nM	25 nM	–
CCc1ccnc([C@@H](C)Sc2nc(N)cc(Cl)n2)c1 [Example 291, R-(+)-4-Amino-6-chloro-2-(1-(4-ethyl-2-pyridyl)ethyl)thio-pyrimidine]	80 nM	187 nM	–
CCc1ccnc([C@H](C)Sc2nc(N)cc(Cl)n2)c1 [Example 292, (-)-4-Amino-6-chloro-2-(1-(4-ethyl-2-pyridyl)ethyl)thio-pyrimidine]	17 nM	–	7
CC(Sc1nc(N)cc(Cl)n1)c1cc2c(C(F)(F)F)coc2c(Cl)n1 (centres unmarked) [Example 293]	190 nM	345 nM	–
CC(Sc1nc(N)cc(Cl)n1)c1cc2c(C(F)(F)F)coc2cn1 (centres unmarked) [Example 294]	104 nM	233 nM	–
Cc1coc2c(Cl)nc(C(C)Sc3nc(N)cc(C(F)(F)F)n3)cc12 (centres unmarked) [Example 295, 4-Amino-2-(1-(7-chloro-3-methyl-furo[2,3c]pyridin-5-yl)ethylthio)-6-trifluoromethyl-pyrimidine]	249 nM	212 nM	–
Cc1coc2cnc(C(C)Sc3nc(N)cc(C(F)(F)F)n3)cc12 (centres unmarked) [Example 296, 4-Amino-6-trifluoromethyl-2-(1-(3-methyl-furo[2,3c]pyridin-5-yl)ethylthio)-pyrimidine]	79 nM and 83 nM and 75 nM	54 nM and 111 nM	–
Cc1coc2cnc([C@H](C)Sc3nc(N)cc(C(F)(F)F)n3)cc12 [Example 297, (S)-(-)-4-Amino-6-trifluoromethyl-2-(l1-(3-methylfuro[2,3c]pyridin-5-yl)ethylthio)-pyrimidine]	64 nM	78 nM	–
Cc1coc2cnc([C@@H](C)Sc3nc(N)cc(C(F)(F)F)n3)cc12 [Example 298, (R)-(+)-4-Amino-6-trifluoromethyl-2-(1-(3-methylfuro[2,3c]pyridin-5-yl)ethylthio)-pyrimidine]	79 nM	113 nM	–
C[C@H](Sc1nc(N)cc(Cl)n1)c1cc2ccoc2cn1 [Example 299, (S)-(-)-4-Amino-6-chloro-2-(1-(furo[2,3c]pyridin-5-yl)ethylthio)-pyrimidine]	22 nM	20 nM	–
CC(Sc1nc(N)cc(Cl)n1)c1ccc(OCc2ccccc2)c(Cl)n1 (centres unmarked) [Example 303, 4-amino-6-chloro-2-(((5-benzyloxy-6-chloro)-2-pyridyl)-ethyl)thio-pyrimidine]	5000 nM	50000 nM	–
CC(C)COc1ccc(C(C)Sc2nc(N)cc(Cl)n2)nc1Cl (centres unmarked) [Example 307, 4-amino-6-chloro-2-(((5-isobutoxy-6-chloro)-2-pyridyl)-ethyl)thio-pyrimidine]	1000 nM	5000 nM	–
